Paper PMC11668715 (AMB Express, 2024)

Legend:
[1] = system: MRSA ATCC 43,300; experiment: Checkerboard dilution assay; format: cell-based, S. aureus; design: MICalone / MICcombined: unit not given beside the values; conditions: for MICalone: drug alone, checkerboard; for MICalone / MICcombined: MRSA ATCC 43,300; for Fold change: MIC combined vs alone
[2] = system: MRSA ATCC 43,300; experiment: Time-killing assay of the synergistical combinations; format: cell-based, S. aureus; conditions: 1/4×MIC of PVB and 1/4×MIC of the antibiotic
[3] = system: MRSA and S. epidermidis persister cells; experiment: Persister cells killing assay; format: cell-based, S. aureus and S. epidermidis; conditions: 64 µg/mL
[4] = group 17: PVB combined with AMK
[5] = group 12: PVB combined with AMP
[6] = group 11: PVB combined with CAZ
[7] = group 14: PVB combined with CEF
[8] = group 13: PVB combined with CEZ
[9] = group 16: PVB combined with CRO
[10] = group 19: PVB combined with KANA
[11] = group 15: PVB combined with OXA
[12] = group 21: PVB combined with SPC
[13] = group 20: PVB combined with TOB
[14] = group 18: PVB combined with GEN

Q: Which results are given for `NCC[C@H](O)C(=O)N[C@@H]1C[C@H](N)[C@@H](O[C@H]2O[C@H](CN)[C@@H](O)[C@H](O)[C@H]2O)[C@H](O)[C@H]1O[C@H]1O[C@H](CO)[C@@H](O)[C@H](N)[C@H]1O` [AMK, amikacin]?
A: MICalone [1]: 64; FICI ([1]; group 17: PVB + AMK): > 2; Outcome ([1]; group 17: PVB + AMK): indifference/antagonism; Fold change [1, 4]: > 1; MICcombined [1, 4]: > 64

Q: `CC1(C)S[C@@H]2[C@H](NC(=O)[C@H](N)c3ccccc3)C(=O)N2[C@H]1C(=O)O` [AMP, ampicillin] was tested. Which “bactericidal activity of combination with PVB (time-killing)” value [2] did it give?
A: synergistical bactericidal activity

Q: What about the MICalone [1] of the same molecule?
A: 16

Q: What about the FICI ([1]; group 12: PVB + AMP) of the same molecule?
A: 0.5

Q: What about the Fold change [1, 5] of the same molecule?
A: 0.25

Q: And the MICcombined [1, 5]?
A: 4

Q: Which results are given for `CC[C@H]1OC(=O)[C@H](C)[C@@H](O[C@H]2C[C@@](C)(OC)[C@@H](O)[C@H](C)O2)[C@H](C)[C@@H](O[C@@H]2O[C@H](C)C[C@H](N(C)C)[C@H]2O)[C@](C)(O)C[C@@H](C)CN(C)[C@H](C)[C@@H](O)[C@]1(C)O` [AZI, azithromycin]?
A: MICalone [1]: > 256; FICI ([1]; group 4: PVB + AZI): 2; Fold change ([1]; group 4: PVB combined with AZI): 1; MICcombined ([1]; group 4: PVB combined with AZI): > 256

Q: How did the MICalone [1] turn out when `CC(C)(O/N=C(\C(=O)N[C@@H]1C(=O)N2C(C(=O)[O-])=C(C[n+]3ccccc3)CS[C@H]12)c1csc(N)n1)C(=O)O` [CAZ, ceftazidime] was run?
A: 32

Q: What about the FICI ([1]; group 11: PVB + CAZ) of the same molecule?
A: 0.75

Q: And the Fold change [1, 6]?
A: 0.25

Q: What about the MICcombined [1, 6] of the same molecule?
A: 8

Q: For `CO/N=C(\C(=O)N[C@@H]1C(=O)N2C(C(=O)O)=C(COC(C)=O)CS[C@H]12)c1csc(N)n1` [CEF, cefotaxime], which “bactericidal activity of combination with PVB (time-killing)” value [2] is on record?
A: synergistical bactericidal activity

Q: What about the MICalone [1] of the same molecule?
A: 2

Q: What about the Fold change [1, 7] of the same molecule?
A: 0.25

Q: What about the MICcombined [1, 7] of the same molecule?
A: 0.5

Q: Which results are given for `Cc1nnc(SCC2=C(C(=O)O)N3C(=O)[C@@H](NC(=O)Cn4cnnn4)[C@H]3SC2)s1` [CEZ, cefazolin]?
A: MICalone [1]: 16; FICI ([1]; group 13: PVB + CEZ): 0.5625; Fold change [1, 8]: 0.5; MICcombined [1, 8]: 8

Q: For `CO/N=C(\C(=O)N[C@@H]1C(=O)N2C(C(=O)O)=C(CSc3nc(=O)c(=O)[nH]n3C)CS[C@H]12)c1csc(N)n1` [CRO, ceftriaxone], which MICalone [1] is on record?
A: 32

Q: What about the FICI ([1]; group 16: PVB + CRO) of the same molecule?
A: 0.5625

Q: What about the Fold change [1, 9] of the same molecule?
A: 0.0625

Q: What about the MICcombined [1, 9] of the same molecule?
A: 2

Q: Which results are given for `CCCCCCCCCC(=O)N[C@@H](Cc1c[nH]c2ccccc12)C(=O)N[C@H](CC(N)=O)C(=O)N[C@@H](CC(=O)O)C(=O)N[C@@H]1C(=O)NCC(=O)N[C@@H](CCCN)C(=O)N[C@@H](CC(=O)O)C(=O)N[C@H](C)C(=O)N[C@@H](CC(=O)O)C(=O)NCC(=O)N[C@H](CO)C(=O)N[C@@H]([C@H](C)CC(=O)O)C(=O)N[C@@H](CC(=O)c2ccccc2N)C(=O)O[C@@H]1C` [DAP, daptomycin]?
A: MICalone [1]: 0.25; FICI ([1]; group 6: PVB + DAP): 1; Fold change ([1]; group 6: PVB combined with DAP): 0.5; MICcombined ([1]; group 6: PVB combined with DAP): 0.125

Q: `C[C@H]1c2cccc(O)c2C(=O)C2=C(O)[C@]3(O)C(=O)C(C(N)=O)=C(O)[C@@H](N(C)C)[C@@H]3[C@@H](O)[C@@H]21` [DOX, doxycycline] was tested. Which MICalone [1] did it give?
A: 0.25

Q: What about the FICI ([1]; group 2: PVB + DOX) of the same molecule?
A: 2

Q: What about the Fold change ([1]; group 2: PVB combined with DOX) of the same molecule?
A: 1

Q: And the MICcombined ([1]; group 2: PVB combined with DOX)?
A: 0.25

Q: With `CC[C@H]1OC(=O)[C@H](C)[C@@H](O[C@H]2C[C@@](C)(OC)[C@@H](O)[C@H](C)O2)[C@H](C)[C@@H](O[C@@H]2O[C@H](C)C[C@H](N(C)C)[C@H]2O)[C@](C)(O)C[C@@H](C)C(=O)[C@H](C)[C@@H](O)[C@]1(C)O` [E, erythromycin] as the molecule, how does the FICI ([1]; group 3: PVB + E) read?
A: 2

Q: With `C[C@@H]1O[C@@H]1P(=O)(O)O` [FOS, fosfomycin] as the molecule, how does the MICalone [1] read?
A: 32

Q: And the FICI ([1]; group 7: PVB + FOS)?
A: 2

Q: And the Fold change ([1]; group 7: PVB combined with FOS)?
A: 1

Q: And the MICcombined ([1]; group 7: PVB combined with FOS)?
A: 32

Q: Which MICalone [1] does the source give for `NC[C@H]1O[C@H](O[C@H]2[C@H](O)[C@@H](O[C@H]3O[C@H](CO)[C@@H](O)[C@H](N)[C@H]3O)[C@H](N)C[C@@H]2N)[C@H](O)[C@@H](O)[C@@H]1O` [KANA, kanamycin] here?
A: 256

Q: What about the FICI ([1]; group 19: PVB + KANA) of the same molecule?
A: 4.5

Q: What about the Outcome ([1]; group 19: PVB + KANA) of the same molecule?
A: antagonism (an antagonism effect was defined as FICI > 4)

Q: And the Fold change [1, 10]?
A: 4

Q: And the MICcombined [1, 10]?
A: 1024

Q: Which MICalone [1] does the source give for `C[C@H]1COc2c(N3CCN(C)CC3)c(F)cc3c(=O)c(C(=O)O)cn1c23` [LEV, levofloxacin] here?
A: 0.125

Q: And the FICI ([1]; group 5: PVB + LEV)?
A: 2

Q: What about the Fold change ([1]; group 5: PVB combined with LEV) of the same molecule?
A: 1

Q: What about the MICcombined ([1]; group 5: PVB combined with LEV) of the same molecule?
A: 0.125

Q: Which MICalone [1] does the source give for `CC(=O)NC[C@H]1CN(c2ccc(N3CCOCC3)c(F)c2)C(=O)O1` [LZD, linezolid] here?
A: 2

Q: And the FICI ([1]; group 8: PVB + LZD)?
A: 2

Q: What about the Fold change ([1]; group 8: PVB combined with LZD) of the same molecule?
A: 1

Q: And the MICcombined ([1]; group 8: PVB combined with LZD)?
A: 2

Q: Which results are given for `Cc1onc(-c2ccccc2)c1C(=O)N[C@@H]1C(=O)N2[C@@H]1SC(C)(C)[C@@H]2C(=O)O` [OXA, oxacillin]?
A: bactericidal activity of combination with PVB (time-killing) [2]: synergistical bactericidal activity; MICalone [1]: 16; FICI ([1]; group 15: PVB + OXA): 0.25; Fold change [1, 11]: 0.125; MICcombined [1, 11]: 2

Q: How did the MICalone [1] turn out when `CN[C@@H]1[C@H](O)[C@H](NC)[C@H]2O[C@@]3(O)C(=O)C[C@@H](C)O[C@H]3O[C@@H]2[C@H]1O` [SPC, spectinomycin] was run?
A: 128

Q: And the FICI ([1]; group 21: PVB + SPC)?
A: 2

Q: And the Fold change [1, 12]?
A: 1

Q: What about the MICcombined [1, 12] of the same molecule?
A: 128

Q: With `CN(C)[C@@H]1C(O)=C(C(N)=O)C(=O)[C@@]2(O)C(O)=C3C(=O)c4c(O)cccc4[C@@](C)(O)[C@H]3C[C@@H]12` [TET, tetracycline] as the molecule, how does the MICalone [1] read?
A: 2

Q: And the FICI ([1]; group 1: PVB + TET)?
A: 3

Q: What about the Fold change ([1]; group 1: PVB combined with TET) of the same molecule?
A: 1

Q: And the MICcombined ([1]; group 1: PVB combined with TET)?
A: 2

Q: Which MICalone [1] does the source give for `NC[C@H]1O[C@H](O[C@H]2[C@H](O)[C@@H](O[C@H]3O[C@H](CO)[C@@H](O)[C@H](N)[C@H]3O)[C@H](N)C[C@@H]2N)[C@H](N)C[C@@H]1O` [TOB, tobramycin] here?
A: 64

Q: And the FICI ([1]; group 20: PVB + TOB)?
A: 5

Q: What about the Fold change [1, 13] of the same molecule?
A: 4

Q: And the MICcombined [1, 13]?
A: 256

Q: `CN[C@H](CC(C)C)C(=O)N[C@H]1C(=O)N[C@@H](CC(N)=O)C(=O)N[C@H]2C(=O)N[C@H]3C(=O)N[C@H](C(=O)N[C@H](C(=O)O)c4cc(O)cc(O)c4-c4cc3ccc4O)[C@H](O)c3ccc(c(Cl)c3)Oc3cc2cc(c3O[C@@H]2O[C@H](CO)[C@@H](O)[C@H](O)[C@H]2O[C@H]2C[C@](C)(N)[C@H](O)[C@H](C)O2)Oc2ccc(cc2Cl)[C@H]1O` [VAN, vancomycin] was tested. Which persister cells killing [3] did it give?
A: resistant

Q: What about the MICalone [1] of the same molecule?
A: 1

Q: And the FICI ([1]; group 9: PVB + VAN)?
A: 2

Q: And the Fold change ([1]; group 9: PVB combined with VAN)?
A: 1

Q: And the MICcombined ([1]; group 9: PVB combined with VAN)?
A: 1

Q: How did the MICalone [1] turn out when gentamycin was run?
A: 16

Q: What about the FICI ([1]; group 18: PVB + GEN) of the same molecule?
A: 2

Q: What about the Outcome ([1]; group 18: PVB + GEN) of the same molecule?
A: indifference (an indifference effect was defined as 1 < FICI ≤ 4)

Q: What about the Fold change [1, 14] of the same molecule?
A: 1

Q: What about the MICcombined [1, 14] of the same molecule?
A: 16

Q: Which FICI ([1]; group 10: PVB + P) does the source give for penicillin here?
A: 1.5

Q: What about the Outcome ([1]; group 10: PVB + P) of the same molecule?
A: indifference (an indifference effect was defined as 1 < FICI ≤ 4)
